According to article PMC7217877, “N-AS-triggered SPMs are direct regulators of microglia in a model of Alzheimer’s disease” (Nature Communications, 2020):
Where “and” joins values, the source holds several entries; their conditions need not be identical. Equal entries are not always repeated.

Assays:
[1] = system: APP/PS1 mice; assay: microglial recruitment to Aβ plaques (Iba1/ThioS colocalization, Fig 5a); format: in vivo, mouse; conditions: APP/PS1 + N-AS; cortex; individual values
Experimental: Thioflavin S (Sigma-Aldrich) staining was carried out according to previously described procedures. We used 6E10 (mouse, 1:100, Signet, SIG39300), anti-20G10 (mouse, 1:1000, provided by D. R. Howlett, GlaxoSmithKline, Harlow, Essex, UK) for Aβ42, anti-G30 (rabbit, 1:1000, provided by D. R. Howlett) for Aβ40, SMA (mouse, 1:400, Sigma-Aldrich, A2547), AT8 (mouse, 1:500, Thermo Fisher Scientific, MN1020), Caspase-3 (mouse, 1:200, Novus Biologicals, NB100-56708), ac-S565 (rabbit, 1:100), COX2 (mouse, 1:250, Thermo Fisher Scientific, 35-8200), Iba1 (rabbit, 1:500, Wako, 019-19941 and goat, Abcam, ab5076), NeuN (mouse, 1:500, Millipore, MAB177), GFAP (rabbit, 1:500, Dako, N1506 and chicken, 1:500, Abcam, ab4674), and Lamp1 (mouse, 1:200, Abcam, ab24170). The sections were analyzed with a laser-scanning confocal microscope (FV3000; Olympus) or with a BX51 microscope (Olympus). MetaMorph software (Molecular Devices) was used to quantification. Three-dimensional reconstruction of microglia was recorded and analyzed using IMARIS software (Bitplane)[11]. For the analysis of age-dependent microglial COX2^+ CX3CR1^+ cells in WT and APP/PS1 mice, COX2 (rabbit, 1:100, Abcam, ab15191) and CX3CR1 (mouse, 1:100, BioLegend, 149008) antibody were used and the images were acquired on Alexa 488 and APC Channel with performed using Operetta CLS and Analysis Software 4.5 (Perkin-Elmer). […]

[2] = system: APP/PS1 mice; assay: light-dark test (Supplementary Fig 7j-n); format: in vivo, mouse; conditions: N-AS vs APP/PS1
Experimental: Transgenic mouse lines over-expressing the hAPP695swe (APP) and presenilin-1M146V (PS1) mutations were originated from GlaxoSmithKline (Harlow, UK)[32] and maintained as described previously. We purchased 5×FAD mice from Jackson Labs (Stock number. 34840-JAX). Because APP/PS1 and 5xFAD mice show sex differences in disease progression, we used only male mice. To examine possible therapeutic effect of N-AS and aspirin in APP/PS1 mice, the N-AS (30 mg kg^−1, Sigma-Aldrich, 01912) was injected daily s.c. for 8 weeks to 7-months-old APP/PS1 mice until the age of 9 months, and aspirin (2 mg kg^−1, Sigma-Aldrich, A5376)[33] was administrated orally to 7-months-old APP/PS1 mice for 8 weeks. […] Block randomization method was used to allocate the animals to experimental groups. To eliminate the bias, we were blinded in experimental progress such as data collection and data analysis. Mice were housed at temperature of 22 °C and a 12 h day/12 h night cycle with free access to tap water and food pellets. All protocols were approved by the Kyungpook National University Institutional Animal Care and Use Committee. […] Freezing was analyzed for 5 min. […] Overall activity in the box was measured, and the amount of time and distance traveled in the center arena was noted. […] The total number of transitions, latency to first enter the light chamber, distance traveled, and time spent in each chamber were recorded.

In the case of `CCCCCCCCCCCCC/C=C/[C@@H](O)[C@H](CO)NC(C)=O` [N-AS, N-((2S,3R,E)-1,3-Dihydroxyoctadec-4-en-2-yl)acetamide], the “Aβ containing /Iba1-positive cells per plaque” value [1] was 7.5498 and 5.551 and 5.112 and 5.2638 and 4.818 and 7.514, the “Aβ-positive Microglia/plaque” value [1] was 27.3068 and 32.6682 and 21.5669 and 18.8144 and 22.2826 and 28.6878 and the “light–dark test” value [2] was “did not differ between the groups”.
